Test results reported in patent publication US20240293392A1, “INHIBITOR COMPOUNDS” (NeoPhore Limited, priority 2021, published 2024).
Counter-ions that a name gives are not always drawn.

Columns and labels:
[1] = biological target: T1, recombinant N-terminal MLH1 (residues 15-340) (Homo sapiens, UniProt P40692); assay: Fluorescence Polarisation Assay for MLH1; assay type: binding; settings: fluorescence polarisation probe displacement; 100 nM N-terminal MLH1, 5 nM probe compound
T1 construct: recombinant N-terminal MLH1 (residues 15-340)
T1 sequence (P40692 15-340): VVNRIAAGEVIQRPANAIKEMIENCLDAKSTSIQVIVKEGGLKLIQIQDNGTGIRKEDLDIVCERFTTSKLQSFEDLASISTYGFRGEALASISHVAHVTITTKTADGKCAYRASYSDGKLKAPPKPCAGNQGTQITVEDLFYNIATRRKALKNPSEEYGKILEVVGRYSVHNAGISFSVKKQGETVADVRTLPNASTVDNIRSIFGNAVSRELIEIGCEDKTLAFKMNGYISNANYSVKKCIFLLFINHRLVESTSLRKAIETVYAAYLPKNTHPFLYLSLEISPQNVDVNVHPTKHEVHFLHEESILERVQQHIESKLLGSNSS
Procedure, shortened: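 FP displacement assay: 100 nM MLH1 (residues 15-340) preincubated 30 min at room temperature with compound in 25 mM HEPES pH 7.5, 250 mM NaCl, 10 mM MgCl2, 0.01% Triton X-100, 5 mM DTT, then 5 nM rhodamine-labelled probe added and read immediately. Data normalised to no-inhibitor and no-enzyme controls.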

[2] = biological target: T2, recombinant N-terminal PMS2 (residues 1-365) (Homo sapiens, UniProt P54278); assay: Fluorescence Polarisation Assay for PMS2; assay type: binding; settings: fluorescence polarisation probe displacement; 10 nM N-terminal PMS2, 5 nM probe compound; read-out: PMS2 IC50
T2 construct: recombinant N-terminal PMS2 (residues 1-365)
T2 sequence (P54278 1-365): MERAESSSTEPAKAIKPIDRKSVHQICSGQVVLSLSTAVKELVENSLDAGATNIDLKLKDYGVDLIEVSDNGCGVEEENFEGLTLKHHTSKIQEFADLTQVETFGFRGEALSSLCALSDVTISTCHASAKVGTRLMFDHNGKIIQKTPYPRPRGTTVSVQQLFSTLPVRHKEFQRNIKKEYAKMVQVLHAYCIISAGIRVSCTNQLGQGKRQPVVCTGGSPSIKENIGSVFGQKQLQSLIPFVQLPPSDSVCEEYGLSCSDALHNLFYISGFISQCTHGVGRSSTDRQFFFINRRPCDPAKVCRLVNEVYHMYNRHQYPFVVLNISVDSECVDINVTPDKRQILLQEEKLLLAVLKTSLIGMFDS
Procedure, shortened: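 Competition fluorescence polarisation with 10 nM N-terminal PMS2 and 5 nM fluorescent probe (final), read after 1 h at room temperature following 30 min compound pre-incubation. Data normalised to no-inhibitor and no-enzyme controls; single-point screening or serial dilutions for potency.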

Row | SMILES | IC50 [1] [nM] | IC50 [2] [nM]
1 | NC(=O)c1ccc(Nc2cccc3c2CN(C(=O)c2c(O)cc(O)cc2OCc2ccccc2)CC3)cc1 [Example 75, 4-((2-(2-(Benzyloxy)-4,6-dihydroxybenzoyl)-1,2,3,4-tetrahydroisoquinolin-8-yl)amino)benzamide] | > 10000 | > 10000
2 | Cc1ncncc1Nc1cccc2c1CN(C(=O)c1c(O)cc(O)cc1OCc1ccccc1)CC2 [Example 123, (2-(Benzyloxy)-4,6-dihydroxyphenyl)(8-((4-methylpyrimidin-5-yl)amino)-3,4-dihydroisoquinolin-2(1H)-yl)methanone] | 1000 to 10000 | > 10000
3 | Nc1cccc2c1CN(C(=O)c1c(O)cc(O)cc1OCc1ccccc1)CC2 [Example 100, 8-Amino-3,4-dihydroisoquinolin-2(1H)-yl(2-(benzyloxy)-4,6-dihydroxyphenyl)methanone] | 1000 to 10000 | 1000 to 10000
4 | O=C(c1c(O)cc(O)cc1OCc1ccccc1)N1Cc2cccc(OCC3CNC3)c2C1 [Example 90, (4-(Azetidin-3-ylmethoxy)isoindolin-2-yl)(2-(benzyloxy)-4,6-dihydroxyphenyl) methanone] | 1000 to 10000 | 1000 to 10000
5 | COc1ccc2c(c1)CN(C(=O)c1c(O)cc(O)cc1OCc1ccccc1)CC2 [Example 49, (2-Benzyloxy-4,6-dihydroxy-phenyl)-(7-methoxy-3,4-dihydro-1H-isoquinolin-2-yl)methanone] | 1000 to 10000 | 1000 to 10000
6 | CC(=O)N1CCC(Nc2cccc3c2CN(C(=O)c2c(O)cc(O)cc2OCc2ccccc2)CC3)CC1 [Example 69, 1-(4-((2-(2-(Benzyloxy)-4,6-dihydroxybenzoyl)-1,2,3,4-tetrahydroisoquinolin-8-yl)amino)piperidin-1-yl)ethan-1-one] | 1000 to 10000 | > 10000
7 | O=C(c1c(O)cc(O)cc1OCC1CCOCC1)N1Cc2cccc(NC3CCOC3)c2C1 (stereo not shown) [Example 98, (2,4-Dihydroxy-6-((tetrahydro-2H-pyran-4-yl)methoxy)phenyl)(4-((tetrahydrofuran-3-yl)amino)isoindolin-2-yl)methanone] | 1000 to 10000 | > 10000
8 | O=C(c1c(O)cc(O)cc1OCc1ccccc1)N1CCc2cccc(NC3CCS(=O)(=O)C3)c2C1 (single isomer, unassigned) [Example 147b, (2-(Benzyloxy)-4,6-dihydroxyphenyl)(8-((1,1-dioxidotetrahydrothiophen-3-yl)amino)-3,4-dihydroisoquinolin-2(1H)-yl)methanone] | < 1000 | 1000 to 10000
9 | COCOc1cc(OCOC)c(C(=O)N2CCc3cccc(N(C)C4CN(C(C)=O)C4)c3C2)c(OCc2ccccc2)c1 [Example 149, 1-(3-((2-(2-(Benzyloxy)-4,6-bis(methoxymethoxy)benzoyl)-1,2,3,4-tetrahydroisoquinolin-8-yl)(methyl)amino)azetidin-1-yl)ethan-1-one] | 1000 to 10000 | > 10000
10 | CN1CC(Nc2cccc3c2CN(C(=O)c2c(O)cc(O)cc2OCc2ccccc2)CC3)CC1=O (stereo not shown) [Example 42, 4-((2-(2-(Benzyloxy)-4,6-dihydroxybenzoyl)-1,2,3,4-tetrahydroisoquinolin-8-yl)amino)-1-methylpyrrolidin-2-one] | < 1000 | < 1000
11 | O=C(c1c(O)cc(O)cc1OCc1ccccn1)N1Cc2cccc(NC3CCOC3)c2C1 (stereo not shown) [Example 40, (2,4-Dihydroxy-6-(pyridin-2-ylmethoxy)phenyl)(4-((tetrahydrofuran-3-yl)amino)isoindolin-2-yl)methanone] | < 1000 | > 10000
12 | Nc1cccc2c1CN(C(=O)c1c(O)cc(O)cc1OCc1ccccc1)C2 [Example 93, (4-Aminoisoindolin-2-yl)(2-(benzyloxy)-4,6-dihydroxyphenyl)methanone] | < 1000 | 1000 to 10000

Continued, values first:

Row | IC50 [1] [nM] | IC50 [2] [nM] | SMILES
13 | < 1000 | 1000 to 10000 | NCc1cccc2c1CN(C(=O)c1c(O)cc(O)cc1OCc1ccccc1)C2 [Example 83, (4-(Aminomethyl)isoindolin-2-yl)(2-(benzyloxy)-4,6-dihydroxyphenyl)methanone hydrochloride]
14 | < 1000 | < 1000 | CC(C)(C)OC(=O)NCCCCCN1CCN(Cc2ccc3c(c2)CN(C(=O)c2c(O)cc(O)cc2OCc2ccccc2)C3)CC1 [Example 103, t-Butyl (5-(4-((2-(2-(benzyloxy)-4,6-dihydroxybenzoyl)isoindolin-5-yl)methyl)piperazin-1-yl)pentyl)carbamate]
15 | < 1000 | < 1000 | O=C(c1c(O)cc(O)cc1OCc1ccccc1)N1Cc2ccc(CNC3COC3)cc2C1 [Example 144, 2-(Benzyloxy)-4,6-dihydroxyphenyl-(5-((oxetan-3-ylamino)methyl)isoindolin-2-yl)methanone]
16 | < 1000 | < 1000 | CNCc1ccc2c(c1)CN(C(=O)c1c(O)cc(O)cc1OCc1ccccc1)C2 [Example 4, (2-(Benzyloxy)-4,6-dihydroxyphenyl)(5-((methylamino)methyl)isoindolin-2-yl)methanone]
17 | < 1000 | > 10000 | CC(=O)N1CCC[C@@H](Nc2cccc3c2CN(C(=O)c2c(O)cc(O)cc2OCc2ccccc2)CC3)C1 [Example 68, (R)-1-(3-((2-(2-(benzyloxy)-4,6-dihydroxybenzoyl)-1,2,3,4-tetrahydroisoquinolin-8-yl)amino)piperidin-1-yl)ethan-1-one]
18 | < 1000 | < 1000 | CN(C)C(=O)c1ccc2c(c1)CN(C(=O)c1c(O)cc(O)cc1OCc1ccccc1)C2 [Example 87, 2-(2-(Benzyloxy)-4,6-dihydroxybenzoyl)-N,N-dimethylisoindoline-5-carboxamide]
19 | < 1000 | > 10000 | CN1CCC(Nc2cccc3c2CN(C(=O)c2c(O)cc(O)cc2OCc2ccccc2)CC3)C1 (stereo not shown) [Example 78, (2-(Benzyloxy)-4,6-dihydroxyphenyl)(8-((1-methylpyrrolidin-3-yl)amino)-3,4-dihydroisoquinolin-2(1H)-yl)methanone]
20 | < 1000 | 1000 to 10000 | CN1CC(Nc2cccc3c2CN(C(=O)c2c(O)cc(O)cc2OCc2ccccc2)C3)CC1=O (stereo not shown) [Example 18, 4-((2-(2-(Benzyloxy)-4,6-dihydroxybenzoyl)isoindolin-4-yl)amino)-1-methylpyrrolidin-2-one]
21 | < 1000 | 1000 to 10000 | O=C(c1c(O)cc(O)cc1OCc1ccccc1)N1Cc2cccc(NCC3CCOC3)c2C1 (stereo not shown) [Example 112, (2-(Benzyloxy)-4,6-dihydroxyphenyl)(4-(((tetrahydrofuran-3-yl)methyl)amino)isoindolin-2-yl)methanone]
22 | < 1000 | 1000 to 10000 | O=C(c1c(O)cc(O)cc1OCc1ccccc1)N1Cc2cccc(Nc3cn[nH]c3)c2C1 [Example 34, (4-((1H-Pyrazol-4-yl)amino)isoindolin-2-yl)(2-(benzyloxy)-4,6-dihydroxyphenyl)methanone]
23 | < 1000 | 1000 to 10000 | CN(C)C(=O)c1cc2c(c(N[C@@H]3CCOC3)c1)CN(C(=O)c1c(O)cc(O)cc1OCc1ccccc1)CC2 [Example 129, (R)-2-(2-(Benzyloxy)-4,6-dihydroxybenzoyl)-N,N-dimethyl-8-((tetrahydrofuran-3-yl)amino)-1,2,3,4-tetrahydroisoquinoline-6-carboxamide]
